Data reported in US10570097B2, “Antimicrobial imidazolium compounds” (AGENCY FOR SCIENCE, TECHNOLOGY AND RESEARCH, priority 2014, dated 2020).

What was measured:
[1] = test system: rat red blood cells (RBCs); experiment: Hemolysis; type: cell-based; conditions: lowest concentration that induces 10% or more hemolysis; rat RBCs, 1 h, 37° C.; maximum tested 100,000 ppm
Experimental: Before these materials can be used in systemic applications, selectivity of these materials for microbial cells over mammalian cells should also be considered. Such selectivity is often determined by observation of hemolysis. Hemolysis was performed in the following manner, fresh rat red blood cells (RBCs) were diluted with PBS buffer to give an RBC stock suspension (4 vol % blood cells). A 100 μL aliquot of RBC stock was added to a 96-well plate containing […] oligomer compound stock solutions of various concentrations (serial 2-fold dilution in PBS). After 1 h incubation at 37° C., The contents of each well was pipetted into a microcentrifuge tube and then centrifuged at 4000 rpm for 5 min. Hemolytic activity was determined as a function of hemoglobin release by measuring OD576 of […] of the supernatant. A control solution that contained only PBS was used as a reference for 0% hemolysis. 100% hemolysis was measured by adding 0.5% Triton-X to the RBCs. [formula] The selectivity of the materials was also further assessed, by calculating the selectivity indices (SI), a measure and a comparison of safety and efficacies of each oligomer compound. […] Herein, the more stringent control of HC10 value was chosen over the HC50 value often reported in literature.

E. coli [2] = experiment: Minimum inhibitory concentration by microdilution assay; type: cell-based, Escherichia coli (ATCC 25922); conditions: E. coli, 37° C., 24 h
Experimental: (§1) Staphylococcus aureus (ATCC 6538, gram-positive), Escherichia coli (ATCC 25922, gram-negative), Pseudomonas aeruginosa (gram-negative), and Candida albicans (ATCC 10231, yeast) were used as representative microorganisms to challenge the antimicrobial functions of the imidazolium salts. All bacteria and yeast were stored frozen at −80° C., and were grown overnight at 37° C. in Tryptic Soy broth (TSB) prior to experiments. Yeast was grown overnight at 22° C. in Yeast Mold (YM) broth. Subsamples of these cultures were grown for 3 h further and diluted to give an optical density value of 0.07 at 600 nm, corresponding to 3×10^8 CFU mL^−1 (MacFarland's Standard).
(§2) The oligomer compounds were dissolved in PBS at a concentration of 1 mg mL^1 and the minimal inhibitory concentrations (MICs) were determined by microdilution assay. Typically, a 100 μL microbial solutions (containing 3×10^8 cells mL^−1) were added to 100 μL of PBS containing the test imidazolium salts (normally ranging from […] in serial two-fold dilutions) in each well of the 96-well microtiter plate. The plates were incubated at 37° C. for 24 h with shaking at 300 rpm, with monitoring at the 2, 4, 6, 8, and 24 h time points. […] Broth and PBS solution containing microbial cells alone were used as negative controls, and experiments were run in triplicates.

[3] = Critical micellar concentration (pyrene fluorescent probe); type: physicochemical; conditions: FIG. 4, deionized water
Experimental: The CMC values of the oligomer compounds were determined in both deionised (DI) water and PBS, using a LS50B luminescence spectrometer (Perkin Elmer, United States) and employing pyrene as a fluorescent probe. A known weight of the oligomer compound was dissolved in either 2 mL of DI water or PBS in a 4 mL glass vial and serial dilutions were effected. 10 μL of pyrene stock solution in acetone (6.16×10^-5 M) was added to each vial containing 1 mL of a known concentration of the oligomer compound, and the acetone was then evaporated at room temperature. The solution was allowed to equilibrate overnight and the final concentration of pyrene in each vial was 6.16×10^-7 M. The excitation spectra of the solutions were scanned from 300 to 360 nm with an emission wavelength of 395 nm, and both the excitation and emission bandwidths were set at 2.5 nm. The intensity ratios ([…]/[…]) were plotted against polymer concentration. The CMC value was given by the intersection of the tangent to the curve at the inflection and the tangent of the points at low polymer concentrations.

E. coli [4] = experiment: Time kill kinetics; type: cell-based, Escherichia coli; conditions: two minutes; for % kill / Log reduction: E. coli, 4MIC
Experimental: Time kill studies of the soligome compounds against E. coli were also studied. The experimental setup for time kill kinetics was similar to the set up for MBC determination. The microbes were treated with oligomer compounds at 4MIC concentration, and samples were taken out of each well at 2 minutes. 500 μl of cell suspension was removed, rescued by a series of 10-fold dilutions with growth medium, and kept on ice until plating. For plating, 50 μl to 200 μl of the diluted samples was spread on growth medium agar plates and colonies were counted after overnight incubation at 37° C.

E. coli [5] = experiment: Minimum biocidal concentration / killing efficiency (24 h); type: cell-based, Escherichia coli
Experimental: (§3) To determine the minimum bacteriocidal concentration, the microbes were inoculated and prepared according to the procedure for MIC determination. […] The bacterial samples were taken out of each well after the aforementioned period, and subjected to a series of 10-fold dilutions. 20 uL of the diluted sample was then streaked across an agar plate, before incubation of the plate at 37° C. for 24 h. Colony forming units (CFU) were counted after overnight incubation, and the results were calculated according to the formula: [formula]

C. Albicans = experiment: Minimum inhibitory concentration by microdilution assay; type: cell-based, Candida albicans (ATCC 10231); conditions: 24 h
Experimental: as §1, §2

S. aureus [6] = experiment: Minimum biocidal concentration / killing efficiency (24 h); type: cell-based, Staphylococcus aureus
Experimental: as §3

S. aureus [7] = experiment: Minimum inhibitory concentration by microdilution assay; type: cell-based, Staphylococcus aureus (ATCC 6538); conditions: 37° C., 24 h
Experimental: as §1, §2

[8] = Gelling properties in solvents (tube inversion test); type: physicochemical
Experimental: Gels were prepared by weighing the imidazolium oligomer compounds directly into 4 mL glass vials and subsequently adding a known weight or volume of the solvent. The vials containing both the imidazolium and the solvent were either vortexed or sonicated to ensure that the imidazolium was dissolved and dispersed thoroughly before being placed in a 4° C. fridge overnight. The tube inversion test method was used to examine gel formation in different solvents.

P. aeruginosa = experiment: Minimum inhibitory concentration by microdilution assay; type: cell-based, Pseudomonas aeruginosa; conditions: 37° C., 24 h
Experimental: as §1, §2

[9] = test system: 4 microbes (S. aureus, E. coli, P. aeruginosa, C. Albicans); experiment: MIC over the 4 microbes tested (geometric mean); type: cell-based; conditions: geometric mean of the MICs of the 4 microbes
Experimental: Staphylococcus aureus (ATCC 6538, gram-positive), Escherichia coli (ATCC 25922, gram-negative), Pseudomonas aeruginosa (gram-negative), and Candida albicans (ATCC 10231, yeast) were used as representative microorganisms to challenge the antimicrobial functions of the imidazolium salts. All bacteria and yeast were stored frozen at −80° C., and were grown overnight at 37° C. in Tryptic Soy broth (TSB) prior to experiments. Yeast was grown overnight at 22° C. in Yeast Mold (YM) broth. […] Typically, a 100 μL microbial solutions (containing 3×10^8 cells mL^−1) were added to 100 μL of PBS containing the test imidazolium salts (normally ranging from […] in serial two-fold dilutions) in each well of the 96-well microtiter plate. The plates were incubated at 37° C. for 24 h with shaking at 300 rpm, with monitoring at the 2, 4, 6, 8, and 24 h time points. […] Broth and PBS solution containing microbial cells alone were used as negative controls, and experiments were run in triplicates. The selectivity of the materials was also further assessed, by calculating the selectivity indices (SI), a measure and a comparison of safety and efficacies of each oligomer compound. […] Herein, the more stringent control of HC10 value was chosen over the HC50 value often reported in literature.

SMILES | HC10 [1] | MIC E. coli (E. coli [2]) | sharp point of inflection indicating the critical micellar concentrations [3] | % kill (E. coli [4]) | Log reduction (E. coli [4]) | % killing (E. coli [5]; 0.5 MIC) | Log reduction (E. coli [5]; 0.5 MIC) | % killing (E. coli [5]; 2 MIC) | Log reduction (E. coli [5]; 2 MIC) | % killing (E. coli [5]; MIC) | Log reduction (E. coli [5]; MIC) | MIC C.A. (C. Albicans) | % killing (S. aureus [6]; 0.5 MIC) | Log reduction (S. aureus [6]; 0.5 MIC) | % killing (S. aureus [6]; 2 MIC) | Log reduction (S. aureus [6]; 2 MIC) | % killing (S. aureus [6]; MIC) | MIC S.A. (S. aureus [7]) | MIC P.A. (P. aeruginosa) | MIC GM [9] | further results
CCCCCC[n+]1ccn(Cc2ccc(C[n+]3ccn(Cc4ccc(C[n+]5ccn(Cc6ccccc6Cn6cc[n+](Cc7ccc(Cn8cc[n+](Cc9ccc(Cn%10cc[n+](CCCCCC)c%10)cc9)c8)cc7)c6)c5)cc4)c3)cc2)c1.[Br-].[Br-].[Cl-].[Cl-].[Cl-].[Cl-] [Compound 1] | >100000 ppm | 8 µg/mL | not observed | 99.8% | 2.85 | 97.692% | 1.48 ± 0.212 | >99.999% | 8.40 ± 0.403 | >99.999% | 7.53 ± 0.173 | 16 µg/mL | 99.975% | 3.69 ± 0.335 | >99.999% | 7.28 ± 0.036 | 99.999% | 4 µg/mL | 8 µg/mL | 8 µg/mL | Log reduction (S. aureus [6]; MIC): 5.35 ± 0.094; State in solvent ([8]; Acetone): Insoluble; State in solvent ([8]; Acetonitrile): Insoluble; Concentration to form gel ([8]; EtOH): (11 wt %); State in solvent ([8]; EtOH): Gel; State in solvent ([8]; Ethylene glycol): Solution; State in solvent ([8]; Glycerol): Solution; Concentration to form gel ([8]; nBuOH): (9.2 wt %); State in solvent ([8]; nBuOH): Gel; Concentration to form gel ([8]; nPrOH): (7.8 wt %); State in solvent ([8]; nPrOH): Gel
CCCCCCCC[n+]1ccn(Cc2ccc(C[n+]3ccn(Cc4ccc(C[n+]5ccn(Cc6ccccc6Cn6cc[n+](Cc7ccc(Cn8cc[n+](Cc9ccc(Cn%10cc[n+](CCCCCCCC)c%10)cc9)c8)cc7)c6)c5)cc4)c3)cc2)c1.[Br-].[Br-].[Cl-].[Cl-].[Cl-].[Cl-] [Compound 2] | 12500 ppm | 8 µg/mL | not observed | >99.9% | 3.11 | 99.779% | 2.67 ± 0.128 | >99.999% | 7.19 ± 0.149 | >99.999% | 7.11 ± 0.123 | 16 µg/mL | 98.03% | 1.71 ± 0.032 | >99.999% | 13.38 ± 0.337 | >99.999% | 4 µg/mL | 16 µg/mL | 9.51 µg/mL | Log reduction (S. aureus [6]; MIC): 11.82 ± 0.067; State in solvent ([8]; Acetone): Insoluble; State in solvent ([8]; Acetonitrile): Insoluble; Concentration to form gel ([8]; EtOH): (11 wt %); State in solvent ([8]; EtOH): Gel; State in solvent ([8]; Ethylene glycol): Solution; State in solvent ([8]; Glycerol): Solution; Concentration to form gel ([8]; nBuOH): (11.3 wt %); State in solvent ([8]; nBuOH): Gel; Concentration to form gel ([8]; nPrOH): (9.8 wt %); State in solvent ([8]; nPrOH): Gel
c1ccc(C[n+]2ccn(Cc3ccc(C[n+]4ccn(Cc5ccc(C[n+]6ccn(Cc7ccccc7Cn7cc[n+](Cc8ccc(Cn9cc[n+](Cc%10ccc(Cn%11cc[n+](Cc%12ccccc%12)c%11)cc%10)c9)cc8)c7)c6)cc5)c4)cc3)c2)cc1 [IBN-1, reference compound] | >100000 ppm | 4 µg/mL | not observed | 83.33% | 0.79 |  |  |  |  |  |  | 31 µg/mL |  |  |  |  |  | 3 µg/mL | 31 µg/mL | 10.36 µg/mL | killing within two minutes (E. coli [4]; E. coli (3×10^8 cells mL^−1), 32 ppm concentration of oligomer compounds): 83%; Gel formation ([8]; any of the solvents): not able to form gels
